Results reported in ChEMBL document CHEMBL4038351, “Structure-Guided Development of Covalent and Mutant-Selective Pyrazolopyrimidines to Target T790M Drug Resistance in Epidermal Growth Factor Receptor” (J Med Chem, 2017).
Values after ≈ are worked out from the molar mass of the structure shown. Active and inactive are the calls of the source. The calls are words filed in the database; no cut-off is given here.

Assays:
A-431 [1] = experiment: cells; assay type: ADME, cell-based; settings: Homo sapiens
Description: Antiproliferative activity against human A431 cells expressing wild type EGFR incubated for 96 hrs measured on day 5 by CellTiterGlo assay

HCC827 = experiment: cells; assay type: functional, cell-based; settings: Homo sapiens;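 further: antiproliferative effect on HCC827 cells carrying EGFR delE746_A750 mutation, 96 h exposure, viability read by CellTiter-Glo luminescence on day 5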
Description: Antiproliferative activity against human HCC827 cells harboring EGFR-delE746_A750 mutant incubated for 96 hrs measured on day 5 by CellTiterGlo assay

NCI-H1975 [2] = experiment: cells; assay type: functional, cell-based; settings: Homo sapiens
A549 [3] = experiment: Antiproliferative activity against human A549 cells harboring KRAS-G12S mutant at 30 uM incubated for 96 hrs measured on day 5 by CellTiterGlo assay; assay type: cell-based; settings: a549, 96 h
[4] = molecular target: Epidermal growth factor receptor (Homo sapiens, UniProt P00533)
Chain of Epidermal growth factor receptor (Homo sapiens, UniProt P00533) (P00533 whole entry): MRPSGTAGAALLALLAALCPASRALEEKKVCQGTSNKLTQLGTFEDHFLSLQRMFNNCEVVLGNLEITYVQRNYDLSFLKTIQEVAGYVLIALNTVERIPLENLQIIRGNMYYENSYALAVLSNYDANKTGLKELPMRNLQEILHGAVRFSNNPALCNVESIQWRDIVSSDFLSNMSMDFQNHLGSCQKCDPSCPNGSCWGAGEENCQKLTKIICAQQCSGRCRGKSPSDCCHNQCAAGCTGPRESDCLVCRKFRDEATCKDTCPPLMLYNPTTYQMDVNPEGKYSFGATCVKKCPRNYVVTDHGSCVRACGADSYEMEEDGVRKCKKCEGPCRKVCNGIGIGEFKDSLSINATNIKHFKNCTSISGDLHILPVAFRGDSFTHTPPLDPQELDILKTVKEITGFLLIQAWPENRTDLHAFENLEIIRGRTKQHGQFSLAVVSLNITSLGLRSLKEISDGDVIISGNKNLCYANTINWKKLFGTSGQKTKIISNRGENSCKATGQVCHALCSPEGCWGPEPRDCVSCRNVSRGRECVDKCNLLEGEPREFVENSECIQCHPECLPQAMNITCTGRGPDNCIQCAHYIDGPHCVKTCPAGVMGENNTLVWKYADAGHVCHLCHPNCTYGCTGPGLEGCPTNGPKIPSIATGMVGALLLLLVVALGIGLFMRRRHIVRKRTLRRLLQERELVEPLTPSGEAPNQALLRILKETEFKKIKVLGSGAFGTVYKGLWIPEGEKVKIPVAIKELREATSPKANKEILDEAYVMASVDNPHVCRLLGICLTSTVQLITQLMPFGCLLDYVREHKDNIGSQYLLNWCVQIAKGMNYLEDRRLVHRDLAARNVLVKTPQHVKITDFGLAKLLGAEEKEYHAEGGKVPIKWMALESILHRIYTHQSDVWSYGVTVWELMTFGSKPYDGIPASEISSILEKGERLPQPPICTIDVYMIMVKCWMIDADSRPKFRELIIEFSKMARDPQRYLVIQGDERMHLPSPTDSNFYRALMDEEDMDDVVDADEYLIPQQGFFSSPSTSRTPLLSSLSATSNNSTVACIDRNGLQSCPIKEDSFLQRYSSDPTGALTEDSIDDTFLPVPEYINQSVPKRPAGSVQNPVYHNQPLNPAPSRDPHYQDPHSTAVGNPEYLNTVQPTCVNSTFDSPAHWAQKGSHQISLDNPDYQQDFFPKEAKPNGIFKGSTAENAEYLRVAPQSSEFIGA

[5] = molecular target: Epidermal growth factor receptor (Homo sapiens, UniProt P00533, L858R)
Chain of Epidermal growth factor receptor (Homo sapiens, UniProt P00533, L858R) (P00533 25-1210 L858R limits assumed): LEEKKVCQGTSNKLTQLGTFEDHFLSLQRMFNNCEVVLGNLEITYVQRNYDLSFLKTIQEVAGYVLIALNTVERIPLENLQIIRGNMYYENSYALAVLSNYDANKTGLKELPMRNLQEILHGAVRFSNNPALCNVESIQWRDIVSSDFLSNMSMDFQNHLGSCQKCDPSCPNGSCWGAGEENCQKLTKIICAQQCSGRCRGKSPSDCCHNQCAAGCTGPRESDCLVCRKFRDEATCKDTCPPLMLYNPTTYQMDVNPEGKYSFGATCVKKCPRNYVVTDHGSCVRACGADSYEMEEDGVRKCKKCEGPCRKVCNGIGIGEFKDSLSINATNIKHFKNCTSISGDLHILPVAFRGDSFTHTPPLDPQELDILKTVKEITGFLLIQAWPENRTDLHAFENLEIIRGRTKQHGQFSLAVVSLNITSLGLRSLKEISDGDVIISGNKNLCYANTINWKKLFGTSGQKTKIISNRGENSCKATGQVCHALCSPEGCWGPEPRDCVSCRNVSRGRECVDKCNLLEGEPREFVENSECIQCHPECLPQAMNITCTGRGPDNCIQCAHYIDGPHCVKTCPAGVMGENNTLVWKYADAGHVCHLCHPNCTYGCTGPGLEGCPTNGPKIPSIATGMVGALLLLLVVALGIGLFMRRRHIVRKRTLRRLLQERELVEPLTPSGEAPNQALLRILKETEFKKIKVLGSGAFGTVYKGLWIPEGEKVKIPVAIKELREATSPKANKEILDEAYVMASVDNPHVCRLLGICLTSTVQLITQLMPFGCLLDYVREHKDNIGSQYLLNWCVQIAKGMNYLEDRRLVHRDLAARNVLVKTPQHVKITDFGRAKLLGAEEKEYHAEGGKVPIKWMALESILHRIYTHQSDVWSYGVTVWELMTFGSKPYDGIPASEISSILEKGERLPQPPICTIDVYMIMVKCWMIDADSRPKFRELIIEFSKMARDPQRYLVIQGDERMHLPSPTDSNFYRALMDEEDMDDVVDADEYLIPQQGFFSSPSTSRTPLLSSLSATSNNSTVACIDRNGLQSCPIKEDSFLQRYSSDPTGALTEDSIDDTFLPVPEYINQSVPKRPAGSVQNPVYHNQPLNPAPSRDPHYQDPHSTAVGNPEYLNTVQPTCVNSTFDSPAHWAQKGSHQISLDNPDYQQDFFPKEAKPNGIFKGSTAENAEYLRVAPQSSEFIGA

[6] = molecular target: Epidermal growth factor receptor (Homo sapiens, UniProt P00533, L858R/T790M)
Chain of Epidermal growth factor receptor (Homo sapiens, UniProt P00533, L858R/T790M) (P00533 25-1210 T790M/L858R limits assumed): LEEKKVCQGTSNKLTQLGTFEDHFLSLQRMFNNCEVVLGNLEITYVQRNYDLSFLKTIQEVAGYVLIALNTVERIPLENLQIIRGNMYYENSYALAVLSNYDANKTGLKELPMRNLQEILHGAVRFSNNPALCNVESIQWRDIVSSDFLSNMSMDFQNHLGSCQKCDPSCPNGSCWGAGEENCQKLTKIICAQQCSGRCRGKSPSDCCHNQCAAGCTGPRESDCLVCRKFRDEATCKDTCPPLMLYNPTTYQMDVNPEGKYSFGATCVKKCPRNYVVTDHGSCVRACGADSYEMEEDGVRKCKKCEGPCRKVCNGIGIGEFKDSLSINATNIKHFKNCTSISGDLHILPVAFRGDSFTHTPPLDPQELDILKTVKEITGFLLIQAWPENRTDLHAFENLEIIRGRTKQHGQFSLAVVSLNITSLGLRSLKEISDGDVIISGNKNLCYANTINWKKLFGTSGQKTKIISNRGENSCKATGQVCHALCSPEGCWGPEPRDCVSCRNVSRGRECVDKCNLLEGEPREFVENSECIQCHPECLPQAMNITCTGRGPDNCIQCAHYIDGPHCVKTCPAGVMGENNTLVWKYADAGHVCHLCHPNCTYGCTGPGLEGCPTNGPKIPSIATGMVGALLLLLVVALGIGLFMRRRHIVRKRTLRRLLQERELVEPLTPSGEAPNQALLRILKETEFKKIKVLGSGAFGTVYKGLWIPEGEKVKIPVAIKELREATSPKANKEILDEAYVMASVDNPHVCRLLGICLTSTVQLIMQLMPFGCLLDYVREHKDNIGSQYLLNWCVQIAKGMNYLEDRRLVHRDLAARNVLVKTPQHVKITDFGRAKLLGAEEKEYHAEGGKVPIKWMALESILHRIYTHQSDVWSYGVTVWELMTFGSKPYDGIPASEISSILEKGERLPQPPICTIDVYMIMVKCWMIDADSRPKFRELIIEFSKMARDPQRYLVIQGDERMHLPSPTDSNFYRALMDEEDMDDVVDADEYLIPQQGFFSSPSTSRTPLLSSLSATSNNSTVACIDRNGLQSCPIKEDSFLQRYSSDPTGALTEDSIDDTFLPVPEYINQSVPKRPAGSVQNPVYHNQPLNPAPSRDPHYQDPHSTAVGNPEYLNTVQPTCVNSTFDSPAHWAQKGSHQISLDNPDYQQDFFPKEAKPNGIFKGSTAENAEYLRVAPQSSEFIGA

A549 [7] = experiment: cells; assay type: ADME, cell-based; settings: Homo sapiens
Description: Antiproliferative activity against human A549 cells harboring KRAS-G12S mutant incubated for 96 hrs measured on day 5 by CellTiterGlo assay

A-431 [8] = experiment: Antiproliferative activity against human A431 cells expressing wild type EGFR at 30 uM incubated for 96 hrs measured on day 5 by CellTiterGlo assay; assay type: cell-based; settings: a-431, 96 h
NCI-H1975 [9] = experiment: Antiproliferative activity against human NCI-H1975 cells harboring EGFR-L858R/T790M double mutant at 30 uM incubated for 96 hrs measured on day 5 by CellTiterGlo assay; assay type: functional, cell-based
[10] = Permeability of the compound at 500 uM incubated for 20 hrs by PAMPA; assay type: physicochemical
[11] = Metabolic stability in human plasma at 5 uM incubated for 1 hr by LC-MS method; assay type: ADME, cell-free; settings: read-out: Stability
[12] = Metabolic stability in mouse plasma at 5 uM incubated for 1 hr by LC-MS method; assay type: ADME, cell-free; settings: read-out: Stability
[13] = Fraction unbound in mouse 100% plasma at 5 uM incubated for 6 hrs by LC-MS method; assay type: ADME, cell-free
[14] = Kinetic solubility in Hepes buffer at 500 uM at pH 7.4 after 90 mins; assay type: physicochemical; settings: read-out: Kinetic_solubility
in vitro [15] = settings: mouse, liver microsomes
in vitro [16] = settings: human, liver microsomes
[17] = Apparent permeability across apical to basolateral side in human Caco2 cells at 5 uM incubated for 2 hrs; assay type: ADME, cell-based, Caco-2; settings: caco-2, 2 h, 5 µM
[18] = Apparent permeability across basolateral to apical side in human Caco2 cells at 5 uM incubated for 2 hrs; assay type: ADME, cell-based, Caco-2; settings: caco-2, 2 h, 5 µM

| SMILES | EC50 (A-431 [1]) [nM] | EC50 (HCC827) [nM] | EC50 (NCI-H1975 [2]) [nM] | Activity (A549 [3]) | IC50 [4] [nM] | IC50 [5] [nM] | IC50 [6] [nM] | EC50 (A549 [7]) [nM] | Activity (A-431 [8]) | Activity (NCI-H1975 [9]) | permeability [10] [%] | remaining at 1 h, 5 µM [11] [%] | remaining at 1 h, 5 µM [12] [%] | fraction unbound at 6 h, 5 µM [13] | solubility kinetic at 1.5 h, 500 µM [14] [µM] | microsomal CLint at 50 min, 3 µM (in vitro [15]) [µL/min/mg] | microsomal CLint at 50 min, 3 µM (in vitro [16]) [µL/min/mg] | Papp [17] [×10⁻⁸ cm/s] | Papp [18] [×10⁻⁸ cm/s] |
| --- | --- | --- | --- | --- | --- | --- | --- | --- | --- | --- | --- | --- | --- | --- | --- | --- | --- | --- | --- |
| C=CC(=O)N1CCC[C@@H](n2nc(-c3ccc(N(C)C)c4ccccc34)c3c(N)ncnc32)C1 | 24500 | 2130 | 2670 | Non-Toxic | 810 | 270 | 210 |  |  |  |  |  |  |  |  |  |  |  |  |
| C=CC(=O)N1CCC[C@@H](n2nc(-c3cccc(F)c3)c3c(N)ncnc32)C1 | 11700 | 70 | 3370 | Non-Toxic | 130 | 10 | 230 |  |  |  |  |  |  |  |  |  |  |  |  |
| C=CC(=O)N1CCC[C@@H](n2nc(C#CC3CCCC3)c3c(N)ncnc32)C1 | 10900 | 1150 | 8270 |  | 750 | 60 | 1400 | 27100 |  |  |  |  |  |  |  |  |  |  |  |
| C=CC(=O)N1CCC[C@@H](n2nc(-c3ccc(F)cc3)c3c(N)ncnc32)C1 |  |  |  |  | 130 | 30 | 280 |  |  |  |  |  |  |  |  |  |  |  |  |
| C=CC(=O)N1CCC[C@@H](n2nc(C3CC3)c3c(N)ncnc32)C1 | 28100 | 310 | 5830 | Non-Toxic | 700 | 110 | 220 |  |  |  |  |  |  |  |  |  |  |  |  |
| CCC(=O)N1CCC[C@@H](n2nc(-c3ccc(C(F)(F)F)cc3)c3c(N)ncnc32)C1 |  | 23600 |  | Non-Toxic | 6500 | 5900 | > 10000 |  | Non-Toxic | inactive |  |  |  |  |  |  |  |  |  |
| C=CC(=O)Nc1cccc(Oc2nc(Nc3ccc(N4CCN(C)CC4)cc3OC)ncc2Cl)c1 |  | 20 | 90 |  |  |  |  | 3990 |  |  |  |  |  |  |  |  |  |  |  |
| C#Cc1nn([C@@H]2CCCN(C(=O)C=C)C2)c2ncnc(N)c12 | 29600 | 2050 | 16200 |  | 1500 | 960 | 690 | 28300 |  |  |  |  |  |  |  |  |  |  |  |
| C=CC(=O)N1CCC[C@@H](n2nc(-c3cnc4[nH]ccc4c3)c3c(N)ncnc32)C1 | 1390 | < 14 | 280 |  | 10 |  | 3 | 3450 |  |  | 27 | 98 | 96 | 0.37 | 457 (≈ 178 µg/mL) | 495 | 108 |  |  |
| C=CC(=O)N1CCC[C@@H](n2nc(-c3ccc(C(F)(F)F)cc3)c3c(N)ncnc32)C1 | 8870 | 160 | 1380 | Non-Toxic | 60 | 60 | 270 |  |  |  |  |  |  |  |  |  |  |  |  |
| C=CC(=O)N1CCC[C@@H](n2nc(-c3ccc(Oc4ccccc4)cc3)c3c(N)ncnc32)C1 [IBRUTINIB] | 2380 | 450 | 640 | Non-Toxic |  |  |  |  |  |  | 38 | 80 | 96 | 0.01 | 57 (≈ 25.1 µg/mL) |  |  | 40 | 0.9 |
| C=CC(=O)N1CCC[C@@H](n2nc(-c3ccccc3)c3c(N)ncnc32)C1 | 12700 | 70 | 3670 |  | 140 | 10 | 240 | 21700 |  |  | 59 | 97 | 91 | 0.33 | 461 (≈ 161 µg/mL) | 924 | 122 |  |  |
| CN(C)C/C=C/C(=O)N1CCC[C@@H](n2nc(-c3ccccc3)c3c(N)ncnc32)C1 | 29800 | 1190 | 29900 | Non-Toxic | 3000 | 220 | 6600 |  |  |  |  |  |  |  |  |  |  |  |  |
| C=CC(=O)N1CCC[C@@H](n2nc(Cc3ccccc3)c3c(N)ncnc32)C1 | 19900 | 150 | 690 | Non-Toxic | 20 | 3 | 10 |  |  |  |  |  |  |  |  |  |  |  |  |
| CN(C)C/C=C/C(=O)N1CCC[C@@H](n2nc(-c3cccc(C(F)(F)F)c3)c3c(N)ncnc32)C1 | 13700 | 6390 | 20600 | Non-Toxic | 7300 | 1000 | 6100 |  |  |  |  |  |  |  |  |  |  |  |  |
| C=CC(=O)N1CCC[C@@H](n2nc(-c3ccc(O)cc3)c3c(N)ncnc32)C1 | 4170 | 70 | 1840 |  |  |  |  | 20000 |  |  |  |  |  |  |  |  |  |  |  |
| C=CC(=O)N1CCC[C@@H](n2nc(C#CCC3CCCC3)c3c(N)ncnc32)C1 | 8770 | 3150 | 6930 |  | 750 | 120 | 920 | 19900 |  |  |  |  |  |  |  |  |  |  |  |
| C=CC(=O)N1CCC[C@@H](n2ncc3c(N)ncnc32)C1 |  | 9900 |  | Non-Toxic | 6900 | 2500 | 1600 |  | Non-Toxic | inactive |  |  |  |  |  |  |  |  |  |
| C=CC(=O)N1CCC[C@@H](n2nc(-c3cccc(C(F)(F)F)c3)c3c(N)ncnc32)C1 | 16000 | 650 | 4160 |  |  | 30 | 220 | 22200 |  |  | 76 | 96 | 99 | 0.09 | 427 (≈ 178 µg/mL) | 2770 | 578 |  |  |
| CCC(=O)N1CCC[C@@H](n2nc(-c3cccc(F)c3)c3c(N)ncnc32)C1 |  | 22300 |  | Non-Toxic | > 10000 | 3400 | > 10000 |  | Non-Toxic | inactive |  |  |  |  |  |  |  |  |  |
| CCC(=O)N1CCC[C@@H](n2nc(-c3ccc(F)cc3)c3c(N)ncnc32)C1 |  | 25900 |  | Non-Toxic | > 10000 | 5000 | > 10000 |  | Non-Toxic | inactive |  |  |  |  |  |  |  |  |  |
| C=CC(=O)N1CCC[C@@H](n2nc(-c3ccc(F)c4ccccc34)c3c(N)ncnc32)C1 | 12800 | 430 | 360 | Non-Toxic |  |  |  |  |  |  |  |  |  |  |  |  |  |  |  |
| CN(C)C/C=C/C(=O)Nc1cc2c(Nc3ccc(F)c(Cl)c3)ncnc2cc1O[C@H]1CCOC1 [AFATINIB] | 200 | < 14 | 600 |  |  |  |  | 1490 |  |  |  |  |  |  |  |  |  |  |  |
